target: T1, AgORco+AgOR10 (Anopheles gambiae, UniProt Q7QCC7); assay: Fluo-4 Ca2+ imaging, HEK293 cells expressing Orco+AgOR10; assay type: cell-based; parameters: Orco 10 + Orco Angatonist % Reduction / Orco 10 + Orco Agonist % of control: concentration or dose not given beside the values; details: 10 + Orco; potentiator mode
T1 construct: expressed in transfected cells
T1 sequence (Q7QCC7 1-478): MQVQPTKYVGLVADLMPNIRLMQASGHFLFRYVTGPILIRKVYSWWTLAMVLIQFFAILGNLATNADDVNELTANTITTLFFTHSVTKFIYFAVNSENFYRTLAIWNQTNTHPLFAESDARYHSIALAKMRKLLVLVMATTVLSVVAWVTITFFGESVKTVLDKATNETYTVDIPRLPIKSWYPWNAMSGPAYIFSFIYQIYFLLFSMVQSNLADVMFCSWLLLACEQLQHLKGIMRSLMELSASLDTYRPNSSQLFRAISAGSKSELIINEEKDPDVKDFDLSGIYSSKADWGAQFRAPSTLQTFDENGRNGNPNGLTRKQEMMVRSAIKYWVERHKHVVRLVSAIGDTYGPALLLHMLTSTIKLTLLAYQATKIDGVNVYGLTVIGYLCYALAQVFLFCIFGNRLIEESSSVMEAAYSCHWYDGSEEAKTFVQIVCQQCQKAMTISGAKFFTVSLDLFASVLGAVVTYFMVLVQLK
Description: For transient transfections, ORs were cloned into pCl (Promega) and transfected into Flp-In™ T-REx™293 cell lines (Invitrogen) with Fu GENE6 (Roche). For the creation of stable cell lines, a cell culture expression vector capable of expressing Orco in conjunction with a conventional OR, pcDNA5/FRT/TO (Invitrogen) was modified to create two individual expression cassettes each under the control of a separate CMV/Tet02 promoter and a BGH poly-adenylation signal. Cells (as above) were transfected with the modified pcDNA5 plasmid along with POG44 (a Flp recombinase expression plasmid) to facilitate site-specific recombination. Stable cell lines were selected using Hygromycin B (Invitrogen). Cells were maintained in DMEM (Invitrogen) supplemented with 10% Tetracycline-free FBS (HyClone) and 15 ng/ml Blasticidin. For fluorometric Ca2+ measurements, stable lines expressing ORs of interest were seeded at 20,000 cells/well in black wall, poly-lysine coated 384-well cell culture plates (Greiner) and treated with […] tetracycline (Sigma) overnight to induce OR expression. Cells were dye-loaded with 1.8 uM Fluo-4 AM (Molecular Probes), 2.5 mM Probenecid (Molecular Probes) in assay buffer (20 mM HEPES, IX HBSS) for 45 minutes at 37° C. in 5% CO2 prior to each assay. Ca^2+ mobilization was assayed in an FDSS6000 (Hamamatsu). Baseline readings were taken for 20 s before automated addition of compound previously diluted in DMSO and assay buffer. Ratios were described as Maximum/Minimum response and each response was normalized to the maximum responder.
As part of an ongoing, cell based calcium imaging screen for novel small-molecule modulators of AgORs that might disrupt olfactory-driven mosquito behaviors (Rinker et al manuscript in preparation), the inventors identified a number of compounds that activated AgOR10+AgORco-expressing human embryonic kidney (HEK293) cells. One of these compounds, (FIG. 3 A) denoted here as VUAA1, elicited activity consistent with allosteric agonism and was pursued for its novel properties. The identity of VUAA1 was verified using high-resolution mass spectrometry (HRMS) as well as ^1H and ^13C NMR. […] As AgORco was the common element among these functional responses, the inventors postulated that VUAA1 was a potential AgORco agonist.

SMILES	Orco 10 + Orco Potentiator % increase
CCn1c(SCCC(=O)O)nnc1-c1cccnc1	15.74%
CCCn1c(SCC(=O)NCCc2ccccc2)nnc1-c1cccnc1	12.58%
CCc1cccc(CC)c1NC(=O)CSc1nnc(C(C)C)n1CC	13.90%

same assay, conditions: Orco 10 + Orco, antagonist mode

SMILES	Orco 10 + Orco Angatonist % Reduction
C=CCn1c(SCc2cccc3ccccc23)nnc1-c1cccnc1	13.43%
CCn1c(CNC(=O)COc2ccc(C(C)C)cc2)nnc1SCC(=O)Nc1cc(F)ccc1C	31.15%
CCn1c(COc2ccc(OC)cc2)nnc1SCC(=O)Nc1cc(OC)ccc1OC	7.54%
CCn1c(CNC(=O)COc2ccc(C(C)C)cc2)nnc1SCC(=O)Nc1ccccc1	13.06%
Cc1ccc(-n2c(SCC(=O)N3CCCc4ccccc43)nnc2-c2cccnc2)c(C)c1	26.04%
CCn1c(COc2cccc(OC)c2)nnc1SCC(=O)Nc1ccccc1C(=O)OC	72.23%
Cc1ccccc1-n1c(SCc2csc(Nc3ccccc3)n2)nnc1-c1cccnc1	56.98%
COc1cc(Cl)c(C)cc1CSc1nnc(-c2cccnc2)n1Cc1ccco1	28.40%
CCn1c(CNC(=O)COc2ccc(C(C)C)cc2)nnc1SCC(=O)Nc1ccccc1F	11.35%
c1ccc(CSc2nnc(-c3cccnc3)n2Cc2ccccc2)cc1	16.73%
CCn1c(CNc2ccc(F)cc2)nnc1SCC(=O)N1CCCc2ccccc21	18.47%
CCn1c(COc2ccc(C)cc2)nnc1SCC(=O)Nc1cc(OC)ccc1OC	59.64%
CCOC(=O)CN(C(=O)CSc1nnc(COc2ccc(OC)cc2)n1CC)c1ccccc1	49.09%
CCOc1ccc(-n2c(SCc3cc(=O)oc4cc(C)ccc34)nnc2-c2cccnc2)cc1	12.48%
Fc1ccc(CSc2nnc(-c3cccnc3)n2Cc2ccco2)cc1	16.64%
CCOC(=O)CN(C(=O)CSc1nnc(CNc2ccc(C)cc2C)n1CC)c1ccccc1	57.34%
CCOc1ccc(-n2c(SCc3cc(=O)oc4cc(C)c(C(C)C)cc34)nnc2-c2cccnc2)cc1	48.28%
Clc1ccc(CSc2nnc(-c3cccnc3)n2Cc2ccco2)c(Cl)c1	49.50%
Clc1ccccc1CSc1nnc(-c2cccnc2)n1Cc1ccco1	33.76%
N#Cc1ccc(CSc2nnc(-c3cccnc3)n2-c2ccccc2)cc1	20.08%
CCOC(=O)c1cccc(NC(=O)CSc2nnc(CNc3ccc(C)cc3)n2CC)c1	62.21%
O=C(CSc1nnc(-c2cccnc2)n1Cc1ccco1)N1c2ccccc2Sc2ccccc21 [drawing 490]	46.34%
CCn1c(COc2cccc(OC)c2)nnc1SCC(=O)Nc1cc(OC)ccc1OC	30.79%
CCn1c(SCC(=O)Nc2ccc3c(c2)OCCO3)nnc1-c1c[nH]c2ccccc12	17.90%

SMILES	Orco 10 + Orco Angatonist % Reduction
CC(C)c1ccccc1-n1c(SCC(=O)N2CCN(c3ccccc3)CC2)nnc1-c1cccnc1	42.29%
O=C(CSc1nnc(-c2cccnc2)n1Cc1ccco1)N1c2ccccc2Sc2ccccc21 [drawing 497]	53.70%
CCN(CC)S(=O)(=O)c1ccc(-c2nnc(SCC(=O)N3c4ccccc4CC3C)n2CC)cc1 (stereo not drawn)	31.53%
CCn1c(SCC(=O)N2c3ccccc3CCc3ccccc32)nnc1-c1ccc(OC)cc1	41.48%
O=C(CSc1nnc(-c2cccnc2)n1-c1ccc(SC(F)F)cc1)N1CCCc2ccccc21	24.77%
Cc1ccc(-n2c(SCC(=O)NCc3ccc4c(c3)OCO4)nnc2-c2cccnc2)c(C)c1	31.14%
O=C(CSc1nnc(-c2cccnc2)n1Cc1ccco1)c1ccc(Br)cc1	7.93%
CCn1c(CNC(=O)COc2ccc(C(C)C)cc2)nnc1SCC(=O)Nc1ccccc1C(C)C	44.74%
CCn1c(SCC(=O)N2c3ccccc3CCc3ccccc32)nnc1-c1ccco1	13.40%
CCn1c(SCC(=O)Nc2ccccc2C(=O)OC)nnc1-c1cccc(C)c1	16.03%
CCn1c(CNC(=O)c2ccco2)nnc1SCC(=O)Nc1cc(C(F)(F)F)ccc1Cl	15.97%
Cc1ccc(Nc2nc(CSc3nnc(-c4cccnc4)n3-c3ccccc3C)cs2)cc1	52.47%
Cc1ccc(Nc2nc(CSc3nnc(-c4cccnc4)n3-c3ccccc3F)cs2)cc1	47.91%
CCn1c(SCC(=O)Nc2ccc(OC)cc2)nnc1-c1ccc2[nH]c(C)c(C)c2c1	24.94%
COc1cc(Cl)c(C)cc1NC(=O)CSc1nnc(-c2cccnc2)n1Cc1ccco1	25.31%
CC(C)c1ccccc1-n1c(SCc2cc(=O)oc3ccc4ccccc4c23)nnc1-c1cccnc1	26.15%
CCOc1ccccc1-n1c(SCC(=O)N2CCCc3ccccc32)nnc1-c1cccnc1	29.87%
Cc1ccc(-n2c(SCC(=O)NCc3ccco3)nnc2-c2cccnc2)c(C)c1	15.51%
CCn1c(SCC(=O)Nc2ccc(N(C)C)cc2)nnc1-c1cccc(C)c1	29.54%
CCn1c(SCC(=O)Nc2ccc(OCc3ccccc3)cc2)nnc1-c1ccco1	28.44%
CCn1c(COc2ccccc2)nnc1SCC(=O)Nc1cc(OC)ccc1OC	38.62%
CCOC(=O)c1c(NC(=O)CSc2nnc(-c3cccnc3)n2Cc2ccco2)sc(C)c1C	30.44%
CCOC(=O)CN(C(=O)CSc1nnc(CNc2ccc(F)cc2)n1CC)c1ccc(F)cc1	8.24%
CCc1ccc(NC(=O)CSc2nnc(-c3cccs3)n2CC)cc1	32.93%

same assay, conditions: Orco 10 + Orco; potentiator mode

SMILES	Orco 10 + Orco Potentiator % increase
CCn1c(SCC(=O)Nc2cc(C)ccc2C)nnc1-c1cnccn1	21.48%
C=CCn1c(SCc2nc(N)nc(N(C)C)n2)nnc1-c1cccnc1	17.15%
Cc1ccccc1-n1c(SC(C)C(N)=O)nnc1-c1cccnc1 (stereo not drawn)	16.98%
O=C(CSc1nnc(-c2cccnc2)n1-c1ccccc1)c1c[nH]c2ccccc12	13.63%
O=C(CSc1nnc(-c2cccnc2)n1-c1ccccc1)NCc1ccc2c(c1)OCO2	16.29%
CCn1c(COc2ccc3c(c2)CCCC3)nnc1SCC(=O)Nc1ccc(C(=O)OC)cc1	18.19%
